According to PubChem BioAssay (NCI):
Values joined by “and” are separate entries in the source; they are usually repeats but may differ in a detail not shown here. Identical values can stand only once.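 A five-concentration, 48-hour dose response in 96-well plates underlies each endpoint, interpolated linearly between surrounding concentrations. Here, GI50 denotes the concentration required for 50% inhibition of growth. The concentration for full growth arrest is given as TGI.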

How the values were obtained:
Test in all cases: growth of human tumour cells (NCI), 48 h
[1] = tested on: LOX IMVI melanoma
[2] = tested on: NCI-H460 lung
[3] = tested on: HL-60(TB) leukemia
[4] = tested on: COLO 205 colon
[5] = tested on: NCI-H226 lung
[6] = tested on: IGROV1 ovarian
[7] = tested on: K-562 leukemia
[8] = tested on: OVCAR-5 ovarian
[9] = tested on: MDA-MB-231 breast
[10] = tested on: MALME-3M melanoma

SMILES | GI50 [1] | TGI [1] | GI50 [2] | TGI [2] | GI50 [3] | TGI [3] | GI50 [4] | TGI [4] | GI50 [5] | TGI [5] | GI50 [6] | TGI [6] | GI50 [7] | TGI [7] | GI50 [8] | TGI [8] | GI50 [9] | TGI [9] | GI50 [10] | TGI [10]
CC1(C)CC[C@]2(CO)CC[C@]3(C)C(=CC[C@@H]4[C@@]5(C)CCNCC(C)(C)[C@@H]5CC[C@]43C)[C@@H]2C1 | 2.45 µM | 5.52 µM | 2.08 µM | 4.82 µM | 2.45 µM | 7.34 µM | 1.9 µM | 4 µM | 16.8 µM | 35.5 µM | 6.83 µM | 21 µM | 2.6 µM | 16.5 µM | 4.94 µM | 17.6 µM | 3.49 µM | 11.6 µM | 1.69 µM | 3.71 µM
O=C(O)c1[nH]c2c([N+](=O)[O-])cc([N+](=O)[O-])cc2c1C(=O)O | – | > 100 µM | – | > 100 µM | – | > 100 µM | – | > 100 µM | – | > 100 µM | – | > 100 µM | – | > 100 µM | – | > 100 µM | – | > 100 µM | – | > 100 µM
NS(=O)(=O)c1cc(C(=O)O)c(Cl)c([N+](=O)[O-])c1Cl | – | > 100 µM | – | > 100 µM | – | > 100 µM | – | > 100 µM | – | > 100 µM | – | > 100 µM | – | > 100 µM | – | > 100 µM | – | > 100 µM | – | > 100 µM
Cn1cc(-c2nc(-c3cn(C)c4ncccc34)cs2)c2ccccc21 | 1.27 µM | > 100 µM | 0.858 µM | 15.9 µM | 1.92 µM | > 100 µM | 1.68 µM | 14 µM | 2.29 µM | 14.4 µM | 1.39 µM | 38.7 µM | 0.412 µM | > 100 µM | 4.92 µM | 45.1 µM | 3.16 µM | 21.8 µM | 0.468 µM | 5.64 µM
CN(C)C/C=C/C(=O)Nc1cc2c(Nc3cccc(Cl)c3F)ncnc2cc1OCCOC(F)F | 1.62 µM | 7.09 µM | 2.82 µM | 13.5 µM | 1.71 µM | 7.23 µM | 1.69 µM | 6.35 µM | 1.68 µM | 7.28 µM | < 0.0142 µM | 1.07 µM | 0.939 µM | 11.6 µM | 0.371 µM | 15.1 µM | 1.09 µM | 7.78 µM | 1.64 µM | 6.47 µM
CCC(C)C(=O)OC1CCC=C2C=CC(C)C(CCC3CC(O)CC(=O)O3)C21 (stereo not drawn) | – | > 100 µM | – | > 100 µM | – | > 100 µM | – | 32.4 µM | – | > 100 µM | – | 44.1 µM | – | > 100 µM | – | > 100 µM | – | > 64.7 µM | – | > 100 µM
OCC1OC(n2cnc3c(NCc4ccccc4O)ncnc32)C(O)C1O (stereo not drawn) | 0.0695 µM | 3.62 µM | 8.57 µM | 46.3 µM | 0.228 µM | 0.92 µM | 0.524 µM | > 24.4 µM | 8.65 µM | 23.2 µM | 0.649 µM | 10.5 µM | 0.634 µM | > 100 µM | 1.15 µM | > 67.1 µM | 0.0769 µM | 3.28 µM | 2.99 µM | > 75.5 µM
CCOC(=O)c1cc2c(n1Cc1ccccc1OC)-c1oncc1CCC2 | 7.64 µM | > 100 µM | 3.89 µM | > 100 µM | 3.04 µM | > 100 µM | 0.878 µM | 3.97 µM | > 100 µM | > 100 µM | 1.99 µM | > 100 µM | 1.59 µM | > 100 µM | > 100 µM | > 100 µM | 9.12 µM | > 100 µM | 3.08 µM | > 100 µM
C[C@@H](Oc1cc(-c2cnn(C3CCNCC3)c2)cnc1N)c1c(Cl)cc(F)cc1Cl | 1.37 µM | 3.21 µM | 0.902 µM | 5.4 µM | 0.917 µM | 2.95 µM | 0.857 µM | 2.45 µM | 2.25 µM | 9.87 µM | 3.31 µM | 16.7 µM | 0.229 µM | 3.88 µM | 2 µM | 10.1 µM | 1.61 µM | 5.22 µM | 1.27 µM | 2.94 µM
O=C(Nc1ccc(Cl)cc1)N1CCN(c2ccc3nncn3n2)CC1 | 92.4 µM | > 100 µM | 50.4 µM | > 100 µM | 29.8 µM | > 100 µM | 51.6 µM | > 100 µM | 68.4 µM | > 100 µM | > 100 µM | > 100 µM | 22 µM | > 100 µM | > 100 µM | > 100 µM | 63.2 µM | > 100 µM | 89.1 µM | > 100 µM
CC(=N/NC(N)=S)/C(C)=N/NC(N)=S | – | > 100 µM | – | > 100 µM | – | > 100 µM | – | > 100 µM | – | > 100 µM | – | > 100 µM | – | > 100 µM | – | > 100 µM | – | > 100 µM | – | > 100 µM
CC(=N\O)/C(C)=N/O.CC(=N\O)/C(C)=N/O.[Fe].[NH2-].c1c[nH]cn1 | 3.17 µM | 13.2 µM | > 100 µM | > 100 µM | > 100 µM | > 100 µM | > 100 µM | > 100 µM | > 100 µM | > 100 µM | > 100 µM | > 100 µM | > 100 µM | > 100 µM | > 100 µM | > 100 µM | > 100 µM | > 100 µM | > 100 µM | > 100 µM
O=c1[nH]c2ccccc2n1C1CCN(CCOc2ccccc2)CC1 | 15.5 µM | > 100 µM | 18.7 µM | > 100 µM | 12.9 µM | > 100 µM | 14.5 µM | 45.8 µM | 30.1 µM | > 100 µM | 91.7 µM | > 100 µM | 6.85 µM | > 100 µM | 47.8 µM | > 100 µM | 27 µM | > 100 µM | 51.5 µM | > 100 µM
NC(Cc1c[nH]c2cccc(F)c12)C(=O)O (stereo not drawn) | 51.6 µM and 211 µM | 982 µM | 34.9 µM and 235 µM | 2460 µM | – | > 4500 µM | 43.6 µM and 302 µM | 944 µM | 3210 µM | > 4500 µM | 43.8 µM | – | 68.5 µM and 269 µM | > 4500 µM | 1280 µM | > 4500 µM | 545 µM | 2300 µM | 2600 µM | > 4500 µM
O=C(COc1cccc(/C=C2\Oc3ccc4ccccc4c3C2=O)c1)c1ccc([N+](=O)[O-])cc1 | 7.5 µM | 20.5 µM | 37 µM | > 100 µM | 62.7 µM | > 100 µM | 21.8 µM | > 100 µM | 16.1 µM | 37.8 µM | 6.76 µM | 40.7 µM | 12.4 µM | 39.4 µM | 27.3 µM | > 100 µM | 18.8 µM | 68.8 µM | 14.7 µM | 43 µM
Cc1ccc(NC2=CC(=O)C(=O)c3ccccc32)cc1 | 2.11 µM | 6.45 µM | 1.7 µM | 3.94 µM | 2.77 µM | > 100 µM | 1.65 µM | 3.1 µM | 1.92 µM | 4.46 µM | 2.73 µM | 12.9 µM | 3.47 µM | > 100 µM | 1.9 µM | 3.54 µM | 2.57 µM | 15.8 µM | 1.63 µM | 3.17 µM
